Measurements: paper PMC9727179, “Acorane sesquiterpenes from the deep-sea derived Penicillium bilaiae fungus with anti-neuroinflammatory effects” (Frontiers in Chemistry, 2022)
Entries after “also recorded” stand apart in the source; their conditions may differ. Where two headings read alike, the source gives them in different places.

Columns and labels:
[1] = test system: NO production in LPS-induced BV-2 cells; experiment: Inhibition of NO production in LPS-induced BV-2 cells (Griess method); assay type: cell-based, murine; details: for IC50: LPS (1 μg/ml)-induced BV-2 cells, 24 h, read-out: IC50, inhibitory effect against NO production
Description: In the presence or absence of LPS (1 μg/ml), murine BV-2 microglial cells were treated with compounds with different concentrations for 24 h. The same volume of Griess reagent was added to the supernatant of culture media. The Griess method was used to determine the NO levels under the absorbance at 540 nm measured using a microplate spectrophotometer (Thermo Scientifics, United States). Based on the established calibration curve of standard sodium nitrite solutions, the content of nitrite was calculated.

[2] = Cell viability / cytotoxicity, MTT method; assay type: cell-based, murine; details: mouse, BV-2 microglial cells, BV-2 cells
Description: (§1) Murine BV-2 microglial cells were obtained from the Cell Culture Center of Institute of Basic Medical Sciences, Chinese Academy of Medical Sciences, and the cells were cultured in Dulbecco’s modified Eagle’s medium (Gibco) together with 10% (v/v) fetal bovine serum (HyClone) within a 5% CO2 incubator at 37°C. The MTT method was utilized to detect the cytotoxicity of the compound to read the absorbance at 570 nm using a microplate spectrophotometer (Thermo Scientifics, United States).

[3] = test system: NF-κB p65; experiment: Nuclear translocation of NF-κB p65 in LPS-stimulated BV-2 cells (immunofluorescence and Western blot); assay type: cell-based, murine; details: LPS (1 μg/ml)-stimulated BV-2 cells, 2 μM, 3 h, immunofluorescence and WB
Description: (§2) In 12-well plates, BV-2 cells were seeded to incubate with LPS (1 μg/ml) for 1 h. Each compound was incubated with BV-2 cells for 16 h. Phenylmethylsulfonyl fluoride-protease inhibitor cocktail as the cell extraction buffer was used to lyse cells. Nuclear and cytosolic extraction kits were applied for the collection of the cytosolic and nuclear extracts. Upon SDS-PAGE, proteins were purified and transferred to PVDF membranes (Millipore). After treatment with 5% (W/V) skim milk in TBST (Tris-buffered saline with 0.1% Tween 20) for 1 h, the membranes were maintained at 4°C overnight. The membrane was washed and then incubated with a secondary antibody at 20°C for 1 h. The target proteins were visualized under a chemiluminescence (ECL) detection system, and the relative optical densities were analyzed by Image Master™ 2D Elite software.
Prior to LPS induction, BV-2 cells were pretreated by the compound (2 μM) in DMSO. Cells were seeded in glass coverslips, which were then treated with cold 4% paraformaldehyde and 0.2% Triton X-100 (in PBS). […] Images were detected using a fluorescence microscope (OLYMPUS IX83).
FIGURE 8 Effect of analog 18 on the nuclear translocation of NF-κB p65 in LPS-stimulated BV-2 cells. […] (B) BV-2 cells were stimulated with LPS (1 μg/ml) in the absence or presence of 18 (2 μM) for 3 h, and NF-kB p65 levels in the nucleus and cytoplasm were determined by Western blot. […]

[4] = test system: COX-2; experiment: Western blot of COX-2 protein expression in LPS-induced BV-2 cells; assay type: cell-based, murine; details: LPS (1 μg/mL)-induced BV-2 cells, different concentrations, 24 h
Description: as §2
(§3) FIGURE 6 Analog 18 inhibited the expression of iNOS and COX-2 in LPS-induced BV-2 cells. Cells were stimulated by 1 μg/mL LPS with or without 18 for 24 h. (A) The protein expressions o f iNOS treated by different concentrations of 18 were determined by Western blot assay, (B) the expressions of COX-2 t reated by different concentrations of 18 were determined by Western blot assay. […]

[5] = test system: phosphorylation of JNK, ERK and p38 (MAPK signaling pathway); experiment: MAPK phosphorylation in LPS-stimulated BV-2 cells; assay type: cell-based, murine; details: LPS-stimulated BV-2 microglial cells
Description: as §2

[6] = test system: iNOS; experiment: iNOS mRNA level; assay type: cell-based
[7] = test system: COX-2; experiment: COX-2 mRNA level; assay type: cell-based
[8] = test system: iNOS; experiment: Western blot of iNOS protein expression in LPS-induced BV-2 cells; assay type: cell-based, murine; details: LPS (1 μg/mL)-induced BV-2 cells, different concentrations, 24 h
Description: as §2, §3

[9] = test system: BV-2 microglial cells; experiment: Cell viability / cytotoxicity, MTT method; assay type: cell-based, murine; details: BV-2 cells
Description: as §1

IC50 ([1]; Mus musculus, BV-2, 24 h) [µM]	Compound	CC50 [2] [µM]	other results
0.5 ± 1.2	C=C(C)C1C(O)CC(C)C12CCC(C(=O)O)C(O)C2 (centres unmarked) [Compound 18, Bilaiaeacorenol R]	> 100	p65 level in the nucleus [3]: significantly downregulated; reduction against NO production ([1]; LPS-induced BV-2 cells, dose-dependent manner): efficient reduction; COX-2 level (protein) [4]: decreased; phosphorylation of JNK, ERK and p38 [5]: slightly affected; also recorded: Ineffective; iNOS mRNA level [6]: marked reductions; COX-2 mRNA level [7]: marked reductions; iNOS level (protein) [8]: decreased
6.8 ± 4.2	[H]/N=C(/NC)NCCC[C@H](N)C(=O)O [L-NMMA, NG-monomethyl-L-arginine, reference compound]	> 100	–
> 10	C=C(C)C1C(O)CC(C)C12CC=C(CO)C(O)C2 (centres unmarked) [Compound 7, Bilaiaeacorenol G]	> 100	–
> 10	C=C(C)C1C(O)CC(C)C12CC(=O)C(C)C(O)C2 (centres unmarked) [Compound 17, Bilaiaeacorenol Q]	> 100	–
> 10	C=C(CO)C1C(OC(C)=O)CC(C)C12CC=C(C)C(O)C2 (centres unmarked) [Compound 10, Bilaiaeacorenol J]	> 100	–
8.7 ± 2.1	C=C(C)C1C(O)CC(C)C12C=CC(C)(O)C(O)C2 (centres unmarked) [Compound 11, Bilaiaeacorenol K]	> 100	–
0.53 ± 0.47	C=C(C)C1C(OC(C)=O)CC(C)C12CCC(CO)C(O)C2 (centres unmarked) [Compound 13, Bilaiaeacorenol M]	> 100	–
> 10	C=C(C)C1C(O)CC(C)C12CC(O)C(C)=CC2O (centres unmarked) [Compound 8, Bilaiaeacorenol H]	> 100	–

Second part, the compound before the results:

Compound	IC50 ([1]; Mus musculus, BV-2, 24 h) [µM]	CC50 [2] [µM]	other results
CC1=CCC2(CC1O)C(C)CC(O)C2C(C)(O)CO (centres unmarked) [Compound 3, Bilaiaeacorenol C]	5.3 ± 1.1	> 100	–
CC1CC(O)C2C(C)(O)CC3CC12CC=C3CO (centres unmarked) [Compound 2, Bilaiaeacorenol B]	6.1 ± 2.3	> 100	melting point: 108 to 110 °C
C=C(C)C1C(OC(C)=O)CC(C)C12CC(O)C(C)(O)C(O)C2 (centres unmarked) [Compound 15, Bilaiaeacorenol O]	–	> 100	IC50 ([1]; Mus musculus): 3.7 ± 0.1 µM
C=C(C)C1C(O)CC(C)C12CC=C(C)C(O)C2 (centres unmarked) [Compound 6, Bilaiaeacorenol F]	–	–	IC50 [1]: > 10 µM; CC50 [9]: > 100 µM
C=C(C)C1C(O)CC(C)C12CCC(CO)C(O)C2 (centres unmarked) [Compound 16, Bilaiaeacorenol P]	–	–	IC50 [1]: 7.5 ± 0.2 µM; CC50 [9]: > 100 µM
CC1=CCC23CC1OC(C)(CO)C2C(O)CC3C (centres unmarked) [Compound 1, Bilaiaeacorenol A]	> 10	> 100	–
C=C(C)C1C(OC(C)=O)CC(C)C12CC(O)C(C)=CC2O (centres unmarked) [Compound 9, Bilaiaeacorenol I]	–	> 100	IC50 ([1]; Mus musculus): 3.5 ± 0.1 µM
CC1=CCC2(CC1O)C(C)CC(O)C2C(C)CO (centres unmarked) [Compound 4, Bilaiaeacorenol D]	7.6 ± 1.2	> 100	–
C=C(C)C1C(O)CC(C)C12CC=C(C)C(O)C2 (centres unmarked) [Compound 5, Bilaiaeacorenol E]	> 10	> 100	–
C=C(C)C1C(O)CC(C)C12CCC(CO)C(O)C2 (centres unmarked) [Compound 12, Bilaiaeacorenol L]	> 10	> 100	–
C=C(C)C1C(O)CC(C)C12CCC(CO)C(O)C2 (centres unmarked) [Compound 14, Bilaiaeacorenol N]	–	–	IC50 ([1]; Mus musculus): > 10 µM; CC50 [9]: > 100 µM
adametacorenol A [Compound 19]	–	–	IC50 [1]: > 10 µM; CC50 [9]: > 100 µM
adametacorenol B [Compound 20]	–	–	IC50 [1]: > 10 µM; CC50 [9]: > 100 µM
